“And” between values parts separate entries of the source, which are not always exact repeats. Equal values may be shown once. Read-outs that look alike come from different tables or passages of the source.
Tests used:
[1] = cited from earlier work
[2] = Gas-phase photoelectron spectroscopy (PES) of the δ bond ionization; assay type: physicochemical; conditions: for onset ionization energy (IEonset, PESonset): first ionization band; for vertical ionization energy (VIE, PESvertical): position of main Gaussian peak
Description: The gas-phase PES of W2(TMhpp)4 and W2(TEhpp)4 were recorded using an instrument that features a 36-cm radius, 8-cm gap hemispherical analyzer, and custom-designed excitation source, sample cells, detection and control electronics, and methods that have been described, for example, in Rev. Sci. Instrum. 1986, 57, 2366 and J. Am. Chem. Soc. 1998, 120, 3382-3386. The temperature was monitored using a “K”-type thermocouple passed through a vacuum feed through and attached directly to the sample cell. Samples of W2(TMhpp)4 and W2(TEhpp)4 were loaded into stainless steel cells and placed in the instrument using rigorous air-sensitive techniques. The data collection focused on determining the δ bond ionization energy. To avoid decomposition in the sample chamber of the cell, ampoules containing the samples were broken off and placed directly in the ionization chamber.
Complete spectra were collected every few minutes.
The ^2P3/2 peak of argon at 15.76 eV ionization energy is typically used for internal energy calibration, but over the course of the experiment sensitivity to the ^2P3/2 peak of Ar was lost. This often happens with molecules that are strong reductants, presumably because of the very large change in work function of the spectrometer when the sample condenses on the spectrometer surfaces. At this point the lamp was adjusted to emit He II photons in addition to He I photons. This allowed observation of the He self-ionization (by He II photons) at an apparent binding energy of 4.99 eV in the He I spectrum. This very sharp line is a convenient internal energy calibrant and is preferable for the calibration of low-energy ionizations. The resolution, as measured by the Ar peak before it was no longer visible, was approximately 0.030 eV. The resolution for the W2(TMhpp)4 and W2(TEhpp)4 experiments, as measured by the He self-ionization, was 71 meV and 88 meV, respectively. Over the course of two separate data collections of W2(TMhpp)4, approximately 800 counts of the full He I spectrum (Graphic S1) and an additional 400 counts of a close-up on the δ bond ionization were collected. For W2(TEhpp)4 approximately 400 counts of the δ bond ionization were collected.
The ionization bands are represented analytically with asymmetric Gaussian peaks. As is typical for the first ionization bands of M2(hpp)4 molecules, a weak shoulder is observed on the high ionization energy side of the peak that necessitates the use of a second asymmetric Gaussian component to reasonably account for the total contour of the ionization intensity. The additional ionization intensity on the high ionization energy side of the first band is ascribed to the different puckered conformations that the hpp ligands can adopt in the molecules. […]

[3] = Solubility in dry organic solvents; assay type: physicochemical
[4] = reported value for comparison, cited from earlier work; for reported E1/2 / observed peak position for W2^5+/4+: THF
[5] = comparison value; cited from earlier work
[6] = Differential pulse voltammetry in THF vs Ag/AgCl; assay type: physicochemical; conditions: DPV peak
Description: ^1H NMR spectra were recorded on a Mercury 300 spectrometer with chemical shifts referenced to the protonated solvent residue. Mass spectrometry data (electrospray ionization, ESI) were recorded at the Laboratory for Biological Mass Spectrometry at Texas A&M University using an MDS Series Qstar Pulsar with a spray voltage of 5 kV. Elemental analyses were performed by Robertson Microlit Laboratories, Inc., Madison, N.J. on crystalline samples that were previously washed with cold hexanes and dried overnight under vacuum. Infrared spectra were recorded in a Perkin-Elmer 16PC FT IR spectrophotometer using KBr pellets. Electronic spectra were recorded on a Shimadzu UV-2501 PC spectrophotometer. The differential pulse voltammograms were collected using a CH Instruments model-CHI620A electrochemical analyzer in a 0.1 M Bu^n4NPF6 solution in THF, using Pt working and auxiliary electrodes, a Ag/AgCl reference electrode, and a scan rate of 100 mV/s. All potential values are referenced to the Ag/AgCl electrode, and under the present experimental conditions, the E1/2 for the Fc^+/Fc couple consistently occurred at +440 mV.

[7] = vacuum
[8] = Ionization energies of comparison substances; assay type: physicochemical; conditions: difference versus compounds 3 and 4
[9] = Literature potentials and solvation energy of comparison substances; assay type: physicochemical; conditions: difference versus compounds 3 and 4
[10] = common dry solvents such as THF, toluene, and benzene
[11] = non-halogenated, non-protonated solvents such as THF, toluene, benzene and even hexanes

For [K] [K, potassium], which “E1/2, literature” value ([1]; in THF) is on record?
The value was −2.66 V.

With C1CN2CCC[N+]3=C2[N](C1)[W-2]124[N]5CCCN6CCC[N+](=C65)[W-2]31([N+]1=C3N(CCC[N]32)CCC1)[N+]1=C2N(CCC[N]24)CCC1 [W2(hpp)4, reference compound] as the compound, how does the “onset ionization energy (IEonset, PESonset)” value [2] read?
Its value is 3.51 eV and 3.51±0.05 eV.

And the “vertical ionization energy (VIE, PESvertical)” value [2]?
Its value is 3.76 eV.

And the solubility ([3]; non-reactive organic solvents)?
Its solubility is “poor solubility”.

What about the “reported E1/2 / observed peak position for W2^5+/4+” value [4] of the same compound?
Its value is −1.81 V.

What about the “reported E1/2 for W2^6+/5+” value [4] of the same compound?
The value was −0.97 V.

With C1CN=C2[N-]CCCN2C1.C1CN=C2[N-]CCCN2C1.C1CN=C2[N-]CCCN2C1.C1CN=C2[N-]CCCN2C1.FC(F)(F)c1cc([B-](c2cc(C(F)(F)F)cc(C(F)(F)F)c2)(c2cc(C(F)(F)F)cc(C(F)(F)F)c2)c2cc(C(F)(F)F)cc(C(F)(F)F)c2)cc(C(F)(F)F)c1.FC(F)(F)c1cc([B-](c2cc(C(F)(F)F)cc(C(F)(F)F)c2)(c2cc(C(F)(F)F)cc(C(F)(F)F)c2)c2cc(C(F)(F)F)cc(C(F)(F)F)c2)cc(C(F)(F)F)c1.[W+3]#[W+3] [W2(hpp)4^2+ (TFPB^−)2] as the compound, how does the “reported E1/2 / observed peak position for W2^5+/4+” value [4] read?
Its value is −1.81 V.

For [Cs] [cesium], which “ionization energy (IE)” value [5] is on record?
The value was 3.89 eV.

With CC1(C)CN2CC(C)(C)C[N+]3=C2[N](C1)[W-2]124([Cl])[N]5CC(C)(C)CN6CC(C)(C)C[N+](=C65)[W-2]31([Cl])([N+]1=C3N(CC(C)(C)C[N]32)CC(C)(C)C1)[N+]1=C2N(CC(C)(C)C[N]24)CC(C)(C)C1 [compound 1, W2(TMhpp)4Cl2] as the compound, how does the “E1/2(1), W2^6+/5+ process” value [6] read?
Its value is −0.99 V.

And the “E1/2(2), W2^5+/4+ process” value [6]?
The value was −1.84 V.

With CCC1(CC)CN2CC(CC)(CC)C[N+]3=C2[N](C1)[W-2]124([Cl])[N]5CC(CC)(CC)CN6CC(CC)(CC)C[N+](=C65)[W-2]31([Cl])([N+]1=C3N(CC(CC)(CC)C[N]32)CC(CC)(CC)C1)[N+]1=C2N(CC(CC)(CC)C[N]24)CC(CC)(CC)C1 [compound 2, W2(TEhpp)4Cl2] as the compound, how does the “E1/2(1), W2^6+/5+ process” value [6] read?
The value was −0.99 V.

What about the “E1/2(2), W2^5+/4+ process” value [6] of the same compound?
Its value is −1.90 V.

Which results are given for W2(TEhpp)4 [compound 4]?
onset ionization energy (IEonset, PESonset) [2]: 3.40±0.05 eV; vertical ionization energy (VIE, PESvertical) [2]: 3.71±0.03 eV; solubility properties compared to decamethylcobaltocene [3]: compare very favorably; solubility [3, 10]: very soluble; solubility ([3]; hexanes): significantly more soluble; solubility [3, 11]: very soluble; decomposition during PES measurement ([7]; 317-340° C., about 1 h): In neither case was there any evidence of decomposition; decomposition during PES measurement ([7]; 317-340° C., about 1 h, listed as W2(TEhpp)4): without evidence of decomposition

Which “solubility properties compared to decamethylcobaltocene” value [3] does the source give for W2(TMhpp)4 [compound 3] here?
The value was “compare very favorably”.

And the solubility [3, 10]?
The solubility was “very soluble”.

What about the solubility ([3]; hexanes) of the same compound?
Its solubility is “Some solubility”.

What about the solubility [3, 11] of the same compound?
The solubility was “very soluble”.

And the “decomposition during PES measurement” value ([7]; 216 to 271° C., 2½ h)?
Its value is “In neither case was there any evidence of decomposition”.

And the “decomposition during PES measurement” value ([7]; 216 to 271° C., 2½ h, listed as W2(TMhpp)4)?
The value was “without evidence of decomposition”.

For decamethylcobaltocene [(Cp*)2Co], which “ionization energy greater than that of compounds 3 and 4” value [8] is on record?
Its value is “more than 1 eV”.

And the “oxidation potential less negative than that of compounds 3 and 4” value [9]?
Its value is “approximately 0.4 V”.

And the “ionization energy (IE)” value [5]?
Its value is 4.705 eV.

And the oxidation potential ([1]; comparison value)?
The oxidation potential was −1.47 V.
